PubChem BioAssay AID330 (DTP/NCI, 2004)
“And” between values parts separate entries of the source, which are not always exact repeats. Equal values may be shown once. Inconclusive results and toxic doses are left out.

Tested on: P388 leukemia ip, CD2F1 mice, survival T/C
Experiment: NCI In Vivo Anticancer Drug Screen. Data for tumor model P388 Leukemia (intraperitoneal) in CD2F1 (CDF1) mice
Conditions: endpoint: median survival time, higher = longer survival
How it was run: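 Mice carrying the transplanted tumor received test compound or vehicle. Survival was recorded in each group, and the value is the treated-group measurement divided by that of the vehicle-treated control group.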

O=c1[nH]cc(F)c(=O)[nH]1
T/C (dose: 6.25 mg/kg/injection, schedule: Q01DX009 (ip), vehicle: saline): 163 % of control
T/C (dose: 7.5 mg/kg/injection, schedule: Q01DX009 (ip), vehicle: saline): 167 % of control and 172 % of control
T/C (dose: 7.5 mg/kg/injection, schedule: Q01DX009 (oral), vehicle: clinical formulation): 107 % of control
T/C (dose: 7.5 mg/kg/injection, schedule: Q03HX024 (ip), vehicle: saline): 201 % of control
T/C (dose: 7.5 mg/kg/injection, schedule: Q04DX003 (iv), vehicle: saline): 107 % of control
T/C (dose: 7.8 mg/kg/injection, schedule: Q04DX003 (ip), vehicle: saline): 99 % of control
T/C (dose: 9.0 mg/kg/injection, schedule: Q01DX009 (ip), vehicle: saline): 159 % of control
T/C (dose: 10.0 mg/kg/injection, schedule: Q03HX024 (ip), vehicle: saline): 228 % of control
T/C (dose: 10.0 mg/kg/injection, schedule: Q04DX002 (ip), vehicle: saline): 123 % of control
T/C (dose: 12.0 mg/kg/injection, schedule: Q01DX009 (ip), vehicle: saline): 153 % of control and 166 % of control
T/C (dose: 12.5 mg/kg/injection, schedule: Q01DX005 (ip), vehicle: saline): 167 % of control and 176 % of control
T/C (dose: 12.5 mg/kg/injection, schedule: Q01DX009 (ip), vehicle: saline): 166 % of control
T/C (dose: 13.0 mg/kg/injection, schedule: Q04DX002 (ip), vehicle: saline): 106 % of control
T/C (dose: 13.2 mg/kg/injection, schedule: Q01DX009 (ip), vehicle: saline): 182 % of control and 213 % of control
T/C (dose: 13.2 mg/kg/injection, schedule: Q01DX009 (ip), vehicle: water): 200 % of control
T/C (dose: 13.3 mg/kg/injection, schedule: Q01DX009 (ip), vehicle: saline sonified): 165 % of control and 181 % of control and 200 % of control
T/C (dose: 15.0 mg/kg/injection, schedule: Q03HX024 (ip), vehicle: saline): 257 % of control
T/C (dose: 15.0 mg/kg/injection, schedule: Q04DX003 (iv), vehicle: saline): 109 % of control
T/C (dose: 16.0 mg/kg/injection, schedule: Q01DX009 (ip), vehicle: saline): 212 % of control
T/C (dose: 18.0 mg/kg/injection, schedule: Q01DX009 (ip), vehicle: saline): 166 % of control
T/C (dose: 19.0 mg/kg/injection, schedule: Q01DX009 (ip), vehicle: saline): 170 % of control
T/C (dose: 20.0 mg/kg/injection, schedule: Q01DX009 (ip), vehicle: water): 118 % of control
T/C (dose: 21.6 mg/kg/injection, schedule: Q04DX002 (ip), vehicle: saline): 97 % of control
T/C (dose: 22.5 mg/kg/injection, schedule: Q03HX024 (ip), vehicle: saline): 118 % of control
T/C (dose: 24.0 mg/kg/injection, schedule: Q01DX009 (ip), vehicle: saline): 119 % of control and 223 % of control
T/C (dose: 25.0 mg/kg/injection, schedule: Q01DX001 (iv), vehicle: saline): 120 % of control
T/C (dose: 27.0 mg/kg/injection, schedule: Q01DX009 (ip), vehicle: water): 97 % of control
T/C (dose: 27.0 mg/kg/injection, schedule: Q04DX003 (ip), vehicle: saline): 158 % of control
T/C (dose: 28.0 mg/kg/injection, schedule: Q01DX009 (ip), vehicle: saline): 101 % of control
T/C (dose: 28.8 mg/kg/injection, schedule: Q01DX005 (ip), vehicle: saline): 158 % of control
T/C (dose: 30.0 mg/kg/injection, schedule: Q03DX003 (ip), vehicle: saline): 162 % of control
T/C (dose: 30.0 mg/kg/injection, schedule: Q04DX003 (iv), vehicle: saline): 124 % of control
T/C (dose: 36.0 mg/kg/injection, schedule: Q01DX009 (ip), vehicle: saline): 100 % of control
T/C (dose: 36.0 mg/kg/injection, schedule: Q04DX002 (ip), vehicle: saline): 112 % of control
T/C (dose: 40.0 mg/kg/injection, schedule: Q03DX003 (ip), vehicle: saline): 165 % of control
T/C (dose: 45.0 mg/kg/injection, schedule: Q01DX009 (ip), vehicle: saline): 99 % of control
T/C (dose: 48.0 mg/kg/injection, schedule: Q01DX005 (ip), vehicle: saline): 109 % of control
T/C (dose: 50.0 mg/kg/injection, schedule: Q01DX001 (ip), vehicle: saline): 119 % of control
T/C (dose: 50.0 mg/kg/injection, schedule: Q01DX005 (ip), vehicle: saline): 112 % of control
T/C (dose: 50.0 mg/kg/injection, schedule: Q03DX003 (ip), vehicle: saline): 168 % of control
T/C (dose: 50.0 mg/kg/injection, schedule: Q04DX002 (ip), vehicle: saline): 154 % of control
T/C (dose: 54.0 mg/kg/injection, schedule: Q04DX003 (ip), vehicle: saline): 159 % of control
T/C (dose: 60.0 mg/kg/injection, schedule: Q01DX009 (oral), vehicle: clinical formulation): 94 % of control
T/C (dose: 60.0 mg/kg/injection, schedule: Q03DX003 (ip), vehicle: saline): 99 % of control
T/C (dose: 60.0 mg/kg/injection, schedule: Q04DX003 (ip), vehicle: water): 170 % of control
T/C (dose: 60.0 mg/kg/injection, schedule: Q04DX003 (iv), vehicle: saline): 122 % of control
T/C (dose: 66.0 mg/kg/injection, schedule: Q01DX001 (ip), vehicle: saline): 120 % of control
T/C (dose: 75.0 mg/kg/injection, schedule: Q01DX005 (ip), vehicle: saline): 99 % of control
T/C (dose: 75.0 mg/kg/injection, schedule: Q04DX003 (ip), vehicle: saline): 185 % of control and 192 % of control and 199 % of control
T/C (dose: 88.0 mg/kg/injection, schedule: Q01DX001 (ip), vehicle: saline): 115 % of control
T/C (dose: 90.0 mg/kg/injection, schedule: Q04DX003 (ip), vehicle: saline sonified): 108 % of control
T/C (dose: 100.0 mg/kg/injection, schedule: Q01DX001 (iv), vehicle: saline): 164 % of control
T/C (dose: 120.0 mg/kg/injection, schedule: Q01DX005 (ip), vehicle: saline): 91 % of control
T/C (dose: 120.0 mg/kg/injection, schedule: Q01DX009 (ip), vehicle: saline): 83 % of control
T/C (dose: 120.0 mg/kg/injection, schedule: Q04DX003 (iv), vehicle: saline): 87 % of control
T/C (dose: 125.0 mg/kg/injection, schedule: Q04DX003 (ip), vehicle: saline): 109 % of control
T/C (dose: 133.3 mg/kg/injection, schedule: Q01DX001 (ip), vehicle: saline): 337 % of control
T/C (dose: 135.0 mg/kg/injection, schedule: Q04DX003 (ip), vehicle: saline): 98 % of control
T/C (dose: 166.7 mg/kg/injection, schedule: Q04DX003 (ip), vehicle: saline): 79 % of control and 81 % of control
T/C (dose: 400.0 mg/kg/injection, schedule: Q01DX001 (iv), vehicle: saline): 100 % of control
